Literature values as cited in patent US7029655B2, “Magnetic resonance imaging agents for in vivo labeling and detection of amyloid deposits” (California Institute of Technology, priority 2000, dated 2006).

Conditions: thermodynamic stability of the Gd(III) chelate

Row | SMILES | stability constant (K) / formation constant, logK
1 | O=C([O-])CN(CCN(CC(=O)[O-])CC(=O)[O-])CCN(CC(=O)[O-])CC(=O)[O-].[Gd+3] [Gd(DTPA)^2−] | 22.4
2 | O=C([O-])CN1CCN(CC(=O)[O-])CCN(CC(=O)[O-])CCN(CC(=O)[O-])CC1.[Gd+3] [Gd-DOTA] | 28.5
